Measurements from patent publication US9943496B2, “Dietary supplement based on ethyl ferulate” (LABORATORIOS MINKAB, S. A. DE C. V., priority 2015, dated 2018).

Assays:
[1] = test system: β receptors; conditions: bovine satellite cells, in vitro; cited from earlier work
[2] = test system: swine; conditions: 50 ppm, swine confinement; cited from earlier work
[3] = compared with ferulic acid; cited from earlier work
[4] = test system: heifers; assay: Sacrifice and evaluation of carcass quality of supplemented heifers; assay type: in vivo, Bos taurus; conditions: for Backfat / Cold carcass yield / Hot yield carcass / Rib eye area / Cold carcass weight / Hot carcass weight: last 30 days; for Cold carcass weight: 24 h postmortem; for Hot carcass weight: mean ± standard error; for Marbling: USDA marbling score (Little 500-599, Modesto 600-699); for % de Choice or greater: percentage of carcass classified Choice or higher
Protocol: Once the productive performance test was finished, the animals were sacrificed following the current regulations.
The pH was measured at 45 min and 24 h postmortem in the Longissimus dorsi (LD) at the 12th intercostal space using a portable digital potentiometer brand HANNA HI 99163 (Mettler-Toledo Process Analytical Inc., Wilmington, Mass., USA). The weight of the hot carcass was recorded, then the carcasses were cooled to 0° C. for 24 h.
At 24 h postmortem the weight of the cold carcass was measured. In at least 36 carcasses per treatment, area in cm^2 rib eye, the thickness of back fat in mm, was evaluated. The degree of marbling was also evaluated following USDA guidelines (2000): Trace (300-399), Light (400-499), Little (500-599), Modest (600-699), Moderate (700-799), Slightly abundant (800-899). These determinations were made in the LD muscle to level 12th intercostal space. Finally, the quality level of the channel according to USDA (2000) was estimated, based on the degree of marbling and carcass physiological maturity: Select − (400-449), Select + (450-499) Choice − (500-599), Choice medium (600-699), Choice + (700-799), Prime (800 or greater).
(§1) Productive performance data were analyzed by ANOVA with a design of a randomized complete block using the method of generalized linear models (GLM) using initial weight as a covariate; data carcass quality were analyzed under a completely randomized design blocks. The variance analysis (mixed models procedure), included as a fixed effect to experimental treatments and as a random effect the initial weight of animals for productive performance data and final weight for carcass quality. The study data shelf life was analyzed using analysis of variance of two ways, considering the fixed effects of treatment and storage time. When differences between treatments were detected in productive performance variables and carcass quality, comparisons of means were performed by orthogonal contrasts. The following contrasts were tested: Contrast 1: Control vs FE5+FE10; Contrast 2: FE5 vs FE10. For data quality meat in the study of oxidative stability, the comparison of means was by the Tukey test. All data were processed in the statistical package NCSS (NCSS Version 8.0, 2012).

[5] = test system: heifers; assay: Productive performance test of heifers supplemented with ethyl ferulate in the diet; assay type: in vivo, Bos taurus; conditions: for Final weight: last 30 days of intensive feeding; for Final weight / Feed conversion / Daily gain / Feed intake: mean ± standard error; for Feed conversion / Daily gain / Feed intake: last 30 days; for Feed conversion: feed consumption/daily gain
Protocol: Productive performance test was conducted in the feedlot of a commercial farm, located in the state of Sonora, Mexico, at an altitude of 210 meters above sea level, latitude 29° 05′ 56″ and longitude 110° 57′ 15″ (INEGI, 2012).
Prior to the start of the study, 270 cattle (heifers) commercial beef producers crosses (of racial influence mainly Bos taurus), which were divided into three lots with uniform power days, racial origin and composition were selected. The animals were weighed individually and identified with plastic earring different color, to be distributed randomly according to a block design (3) complete random. To facilitate the handling of heifers and scheduling your humane slaughter, each block was postponed one week and was formed by three pens with 30 animals each.
Once done animals blocks, each pen within each block was completely randomized one of the following treatments: • Treatment CONT: Animals receiving the basal diet without additive (control). • Treatment FE5: Animals receiving the basal diet supplemented the last 30 days of fattening stage 5 ppm of ethyl ferulate. • Treatment FE10: Animals receiving the basal diet supplemented the last 30 days of the fattening phase with 10 ppm of ethyl ferulate.
The initial live weight of the animals was 484.68±2.84 kg. All animals were fed a basal diet with a ratio of forage:concentrate of 20:80, which was formulated to contain 1.62 Mcal of net energy gain/kg of feed, 12.7% crude protein, 0.91% Calcium and 0.27% phosphorus. The amount of ethyl ferulate per ton of feed was first added to the mineral premix and later it was incorporated into the automated experimental ration.
All animals were individually weighed at the beginning and end of the experimental test, for which an electronic scale Tru-Test 300 (Tru-Test Corporation, New Zealand) equipped with recording memory was used. Daily weight gain (GDP) was estimated by the difference between initial and final weight and divided by 30 (the feeding period).
Feed intake was recorded daily for corral, for which both the food offered and refused was weighed. Feed conversion per pen/treatment with the average food consumption ratio between GDP was also calculated.
as §1

[6] = FE supplemented vs control, P<0.05
[7] = contrast C1: Control vs FE5+FE10, P<0.05

Question: Which results are given for COc1cc(/C=C/C(=O)O)ccc1O [AF, Ferulic acid]?
Answer: Recognition by β receptors on the cell membrane [1]: recognized by β receptors; Back fat thickness over the control group [2]: decrease

Question: With CCOC(=O)/C=C/c1ccc(O)c(OC)c1 [ethyl ferulate] as the molecule, how does the “Antibacterial and antioxidant capacity” value [3] read?
Answer: very similar to those of ferulic acid

Question: And the “Thickness of the dorsal fat, effect of treatments” value ([4]; 5 and 10 ppm vs control, P>0.05)?
Answer: not affected by treatments

Question: What about the “Marbling, 10 ppm FE regarding 5 ppm FE” value ([4]; 10 ppm vs 5 ppm) of the same molecule?
Answer: higher marbling

Question: And the Backfat ([4]; FE5: 5 ppm/day)?
Answer: 14.60 ± 1.05 mm

Question: And the Cold carcass yield ([4]; FE5: 5 ppm/day)?
Answer: 61.77 ± 0.16%

Question: What about the Hot yield carcass ([4]; FE5: 5 ppm/day) of the same molecule?
Answer: 62.38 ± 0.15%

Question: What about the Rib eye area ([4]; FE5: 5 ppm/day) of the same molecule?
Answer: 85.67 ± 2.28 cm^2

Question: What about the Cold carcass weight ([4]; FE5: 5 ppm/day) of the same molecule?
Answer: 320.81 ± 3.25 kg

Question: And the Hot carcass weight ([4]; FE5: 5 ppm/day)?
Answer: 323.97 ± 3.25 kg

Question: And the Marbling ([4]; FE5: 5 ppm/day)?
Answer: 578.57 ± 16

Question: And the “% de Choice or greater” value ([4]; FE5: 5 ppm/day)?
Answer: 66.7%

Question: And the Backfat ([4]; FE10: 10 ppm/day)?
Answer: 15.82 ± 0.84 mm

Question: What about the Cold carcass yield ([4]; FE10: 10 ppm/day) of the same molecule?
Answer: 61.68 ± 0.19%

Question: And the Hot yield carcass ([4]; FE10: 10 ppm/day)?
Answer: 62.39 ± 0.19%

Question: What about the Rib eye area ([4]; FE10: 10 ppm/day) of the same molecule?
Answer: 86.60 ± 1.87 cm^2

Question: And the Cold carcass weight ([4]; FE10: 10 ppm/day)?
Answer: 320.50 ± 3.19 kg

Question: And the Hot carcass weight ([4]; FE10: 10 ppm/day)?
Answer: 324.19 ± 3.23 kg

Question: What about the Marbling ([4]; FE10: 10 ppm/day) of the same molecule?
Answer: 637.14 ± 15

Question: What about the “% de Choice or greater” value ([4]; FE10: 10 ppm/day) of the same molecule?
Answer: 80%

Question: And the “Hot carcass weight (PCC) greater than control” value ([4]; FE supplemented heifers vs control, P<0.001)?
Answer: 1.80%

Question: What about the “Increase of cold carcass weight (PCF) vs control” value [4, 6] of the same molecule?
Answer: 1.86%

Question: And the “Marbling of supplemented compared to non supplemented animals” value [4, 6]?
Answer: More marbling

Question: And the “Increase in carcass weight vs control” value ([4]; hot carcass, FE supplemented vs control)?
Answer: more than 5 kg

Question: And the Final weight ([5]; FE5: 5 ppm/day)?
Answer: 519.58 ± 5.4 kg

Question: And the Feed conversion ([5]; FE5: 5 ppm/day)?
Answer: 8.78 ± 0.6 kg

Question: What about the Daily gain ([5]; FE5: 5 ppm/day) of the same molecule?
Answer: 1.13 ± 0.04 kg

Question: What about the Feed intake ([5]; FE5: 5 ppm/day) of the same molecule?
Answer: 8.11 ± 0.07 kg

Question: What about the Final weight ([5]; FE10: 10 ppm/day) of the same molecule?
Answer: 520.20 ± 5.63 kg

Question: What about the Feed conversion ([5]; FE10: 10 ppm/day) of the same molecule?
Answer: 7.25 ± 0.27 kg

Question: What about the Daily gain ([5]; FE10: 10 ppm/day) of the same molecule?
Answer: 1.23 ± 0.04 kg

Question: And the Feed intake ([5]; FE10: 10 ppm/day)?
Answer: 8.09 ± 0.07 kg

Question: What about the “Less feed required to gain one kilogram of live weight” value ([5]; FE supplemented heifers vs control) of the same molecule?
Answer: 4.3 kg

Question: And the “Improvement in feed conversion relative to control” value [5, 7]?
Answer: 35%

Question: And the “Increase of daily gain (GDP) relative to control” value [5, 7]?
Answer: 26%
